Measurements published in patent US20260070945A1, “MACROCYCLIC IMMUNOMODULATORS” (Bristol-Myers Squibb Company, priority 2022, published 2026).
Where a SMILES comes first, the peptide text is derived from it. Bridges are numbered along the chain shown (N, C = ends). [ ]: non-standard residue; d: D form. The star is where a group is joined. ξ: configuration not given here. Phe(4-CONH2) = NC(=O)c1ccc(C[C@H](N)C(=O)O)cc1; Phe(4-COOH) = N[C@@H](Cc1ccc(C(=O)O)cc1)C(=O)O; Bip = N[C@@H](Cc1ccc(-c2ccccc2)cc1)C(=O)O; NH(CH2)14COOH = O=C(O)CCCCCCCCCCCCCCN*; Phe(3-Me) = Cc1cccc(C[C@H](N)C(=O)O)c1; Phe(4-F) = N[C@@H](Cc1ccc(F)cc1)C(=O)O; Val(3-OH) = CC(C)(O)[C@H](N)C(=O)O; 4Pal = N[C@@H](Cc1ccncc1)C(=O)O; Cha = N[C@@H](CC1CCCCC1)C(=O)O; Thr(3ξ) = CC(O)[C@H](N)C(=O)O; NMeNle = CCCC[C@H](NC)C(=O)O; Carboxymethyl = O=C(O)C*; NMeA = CN[C@@H](C)C(=O)O; Aun = NCCCCCCCCCCC(=O)O; Dab = NCC[C@H](N)C(=O)O; AEEA = NCCOCCOCC(=O)O

The molecules below were run against T1, PD-1/PD-L1 interaction (PE-labeled human PD-L1-Ig binding to Jurkat cell line over-expressing human PD-1) (Homo sapiens, UniProt Q15116) (assay: Jurkat-PD-1 Cell Binding High-Content Screening Assay (CBA)). Conditions: PE-labeled PD-L1-Ig 20 nM final, Jurkat-hPD-1 cells; read-out: Jurkat HPD1 PDL1 IC50.
T1 construct: expressed in transfected cells; host or cells: Jurkat
T1 sequence (Q15116 25-288): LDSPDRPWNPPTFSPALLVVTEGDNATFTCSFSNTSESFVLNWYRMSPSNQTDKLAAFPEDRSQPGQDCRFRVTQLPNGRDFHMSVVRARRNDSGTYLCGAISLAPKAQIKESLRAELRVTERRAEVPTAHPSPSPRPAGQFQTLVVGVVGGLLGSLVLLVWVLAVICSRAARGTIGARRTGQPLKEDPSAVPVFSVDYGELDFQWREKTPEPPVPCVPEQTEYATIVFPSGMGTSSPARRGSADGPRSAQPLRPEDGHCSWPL
How it was run: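 Binding of 20 nM (final) PE-tagged PD-L1-Ig to compound-pretreated Jurkat-hPD-1 cells was measured by high-content imaging after 1 h. Pretreatment ran 2 h at 37 °C in DMEM with 10% fetal calf serum.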

| SMILES | IC50 [nM] |
| --- | --- |
| Cc1cccc(C[C@@H]2NC(=O)[C@H](CC(=O)O)NC(=O)[C@H](Cc3ccc(OCC(=O)O)cc3)NC(=O)[C@H](C(C)O)NC(=O)CSC[C@@H](C(=O)N[C@@H](CCN)C(=O)NCCOCCOCC(=O)NCCOCCOCC(=O)NCCCCCCCCCCC(=O)O)NC(=O)[C@H](CCC(=O)O)NC(=O)[C@H](C(C)(C)O)NC(=O)[C@H](CC3CCCCC3)NC(=O)[C@H](CCN)NC(=O)[C@@H](CC(C)C)NC(=O)[C@H](C)N(C)C(=O)[C@H](Cc3ccc(C(=O)O)cc3)NC(=O)[C@H](Cc3ccc(-c4ccccc4)cc3)NC(=O)[C@H](Cc3ccc(C(=O)O)cc3)NC2=O)c1 (stereo partly drawn) [Example 2537] ({CH2CO}-[Thr(3ξ)]Y(Carboxymethyl)D[Phe(3-Me)][Phe(4-COOH)][Bip][Phe(4-COOH)][NMeA][dL][Dab][Cha][Val(3-OH)]EC[Dab][AEEA][AEEA][Aun]-OH; thioether N-14) | 17.1 |
| Cc1cccc(C[C@@H]2NC(=O)[C@H](CC(=O)O)NC(=O)[C@H](Cc3ccc(C(=O)O)cc3)NC(=O)[C@H](C(C)O)NC(=O)CSC[C@@H](C(=O)N[C@@H](CCN)C(=O)NCCOCCOCC(=O)NCCOCCOCC(=O)NCCCCCCCCCCC(=O)O)NC(=O)[C@H](CCC(=O)O)NC(=O)[C@H](C(C)C)NC(=O)[C@H](CC3CCCCC3)NC(=O)[C@H](CCN)NC(=O)[C@@H](CC(C)C)NC(=O)[C@H](C)N(C)C(=O)[C@H](Cc3ccc(C(=O)O)cc3)NC(=O)[C@H](Cc3ccc(-c4ccccc4)cc3)NC(=O)[C@H](Cc3ccc(C(=O)O)cc3)NC2=O)c1 (stereo partly drawn) [Example 2538] ({CH2CO}-[Thr(3ξ)][Phe(4-COOH)]D[Phe(3-Me)][Phe(4-COOH)][Bip][Phe(4-COOH)][NMeA][dL][Dab][Cha]VEC[Dab][AEEA][AEEA][Aun]-OH; thioether N-14) | 12.4 |
| Cc1cccc(C[C@@H]2NC(=O)[C@H](CC(=O)O)NC(=O)[C@H](Cc3ccc(C(=O)O)cc3)NC(=O)[C@H](C(C)O)NC(=O)CSC[C@@H](C(=O)N[C@@H](CCN)C(=O)NCCOCCOCC(=O)NCCOCCOCC(=O)NCCOCCOCC(=O)NCCCCCCCCCCCCCCC(=O)O)NC(=O)[C@H](CCC(=O)O)NC(=O)[C@H](C(C)C)NC(=O)[C@H](CC3CCCCC3)NC(=O)[C@H](CCN)NC(=O)[C@@H](CC(C)C)NC(=O)[C@H](C)N(C)C(=O)[C@H](Cc3ccc(C(=O)O)cc3)NC(=O)[C@H](Cc3ccc(-c4ccccc4)cc3)NC(=O)[C@H](Cc3ccc(C(=O)O)cc3)NC2=O)c1 (stereo partly drawn) [Example 2539] ({CH2CO}-[Thr(3ξ)][Phe(4-COOH)]D[Phe(3-Me)][Phe(4-COOH)][Bip][Phe(4-COOH)][NMeA][dL][Dab][Cha]VEC[Dab][AEEA][AEEA][AEEA]-{NH(CH2)14COOH}; thioether N-14) | 350 |
| Cc1cccc(C[C@@H]2NC(=O)[C@H](CC(=O)O)NC(=O)[C@H](Cc3ccc(C(=O)O)cc3)NC(=O)[C@H](Cc3ccncc3)NC(=O)CSC[C@@H](C(=O)N[C@@H](CCN)C(=O)NCCOCCOCC(=O)NCCCCCCCCCCC(=O)O)NC(=O)[C@H](C(C)O)NC(=O)[C@H](C(C)(C)O)NC(=O)[C@H](CC3CCCCC3)NC(=O)[C@H](CCN)NC(=O)[C@@H](CC(C)C)NC(=O)[C@H](C)N(C)C(=O)[C@H](CCC(=O)O)NC(=O)[C@H](Cc3ccc(-c4ccccc4)cc3)NC(=O)[C@H](Cc3ccc(C(N)=O)cc3)NC2=O)c1 (stereo partly drawn) [Example 2540] ({CH2CO}-[4Pal][Phe(4-COOH)]D[Phe(3-Me)][Phe(4-CONH2)][Bip]E[NMeA][dL][Dab][Cha][Val(3-OH)][Thr(3ξ)]C[Dab][AEEA][Aun]-OH; thioether N-14) | 9 |
| Cc1cccc(C[C@@H]2NC(=O)[C@H](CC(=O)O)NC(=O)[C@H](Cc3ccc(C(=O)O)cc3)NC(=O)[C@H](Cc3ccc(F)cc3)NC(=O)CSC[C@@H](C(=O)N[C@@H](CCN)C(=O)NCCOCCOCC(=O)NCCOCCOCC(=O)NCCCCCCCCCCC(=O)O)NC(=O)[C@H](CCC(=O)O)NC(=O)[C@H](C(C)C)NC(=O)[C@H](CC3CCCCC3)NC(=O)[C@H](CCN)NC(=O)[C@@H](CC(C)C)NC(=O)[C@H](C)N(C)C(=O)[C@H](Cc3ccc(C(=O)O)cc3)NC(=O)[C@H](Cc3ccc(-c4ccccc4)cc3)NC(=O)[C@H](Cc3ccc(C(=O)O)cc3)NC2=O)c1 [Example 2542] ({CH2CO}-[Phe(4-F)][Phe(4-COOH)]D[Phe(3-Me)][Phe(4-COOH)][Bip][Phe(4-COOH)][NMeA][dL][Dab][Cha]VEC[Dab][AEEA][AEEA][Aun]-OH; thioether N-14) | 2.4 |
| CCCC[C@H]1C(=O)N[C@@H](Cc2ccc(C(=O)O)cc2)C(=O)N[C@@H](CC(=O)O)C(=O)N[C@@H](Cc2cccc(C)c2)C(=O)N[C@@H](Cc2ccc(C(=O)O)cc2)C(=O)N[C@@H](Cc2ccc(-c3ccccc3)cc2)C(=O)N[C@@H](Cc2ccc(C(=O)O)cc2)C(=O)N(C)[C@@H](C)C(=O)N[C@H](CC(C)C)C(=O)N[C@@H](CCN)C(=O)N[C@@H](CC2CCCCC2)C(=O)N[C@@H](C(C)C)C(=O)N[C@@H](CCC(=O)O)C(=O)N[C@H](C(=O)N[C@@H](CCN)C(=O)NCCOCCOCC(=O)NCCCCCCCCCCC(=O)O)CSCC(=O)N1C [Example 2543] ({CH2CO}-[NMeNle][Phe(4-COOH)]D[Phe(3-Me)][Phe(4-COOH)][Bip][Phe(4-COOH)][NMeA][dL][Dab][Cha]VEC[Dab][AEEA][Aun]-OH; thioether N-14) | 32 |
| Cc1cccc(C[C@@H]2NC(=O)[C@H](CC(=O)O)NC(=O)[C@H](Cc3ccc(C(=O)O)cc3)NC(=O)[C@H](C(C)O)NC(=O)CSC[C@@H](C(=O)N[C@@H](CCN)C(=O)NCCOCCOCC(=O)NCCCCCCCCCCC(=O)O)NC(=O)[C@H](Cc3cnc[nH]3)NC(=O)[C@H](C(C)(C)O)NC(=O)[C@H](CC3CCCCC3)NC(=O)[C@H](CCN)NC(=O)[C@@H](CC(C)C)NC(=O)[C@H](C)N(C)C(=O)[C@H](Cc3ccc(C(=O)O)cc3)NC(=O)[C@H](Cc3ccc(-c4ccccc4)cc3)NC(=O)[C@H](Cc3ccc(C(=O)O)cc3)NC2=O)c1 (stereo partly drawn) [Example 2545] ({CH2CO}-[Thr(3ξ)][Phe(4-COOH)]D[Phe(3-Me)][Phe(4-COOH)][Bip][Phe(4-COOH)][NMeA][dL][Dab][Cha][Val(3-OH)]HC[Dab][AEEA][Aun]-OH; thioether N-14) | 13.1 |
| Cc1cccc(C[C@@H]2NC(=O)[C@H](CC(=O)O)NC(=O)[C@H](Cc3ccc(C(=O)O)cc3)NC(=O)[C@H](CCN)NC(=O)CSC[C@@H](C(=O)N[C@@H](CCN)C(=O)NCCOCCOCC(=O)NCCCCCCCCCCC(=O)O)NC(=O)[C@H](CCC(=O)O)NC(=O)[C@H](C(C)C)NC(=O)[C@H](CC3CCCCC3)NC(=O)[C@H](CCN)NC(=O)[C@@H](CC(C)C)NC(=O)[C@H](C)N(C)C(=O)[C@H](Cc3ccc(C(=O)O)cc3)NC(=O)[C@H](Cc3ccc(-c4ccccc4)cc3)NC(=O)[C@H](Cc3ccc(C(=O)O)cc3)NC2=O)c1 [Example 2546] ({CH2CO}-[Dab][Phe(4-COOH)]D[Phe(3-Me)][Phe(4-COOH)][Bip][Phe(4-COOH)][NMeA][dL][Dab][Cha]VEC[Dab][AEEA][Aun]-OH; thioether N-14) | 11.7 |
